Data taken from PubChem BioAssay AID248 (DTP/NCI, 2004).
Where “and” joins values, the source holds several entries; their conditions need not be identical. Identical values can stand only once. Inconclusive results and toxic doses are left out.

Test system: L1210 leukemia ip in BDF1 mice, survival T/C
Assay: NCI In Vivo Anticancer Drug Screen. Data for tumor model L1210 Leukemia (intraperitoneal) in B6D2F1 (BDF1) mice
Conditions: endpoint: mean survival time, higher = longer survival
How it was run: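 Value reflects the ratio of survival in compound-treated mice to survival in vehicle-treated controls, with both groups carrying the same transplanted tumor.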

[1] = dose: 100.0 mg/kg/injection, schedule: Q01DX001 (ip), vehicle: gum acacia
[2] = dose: 200.0 mg/kg/injection, schedule: Q01DX001 (ip), vehicle: gum acacia
[3] = dose: 400.0 mg/kg/injection, schedule: Q01DX001 (ip), vehicle: gum acacia
[4] = dose: 25.0 mg/kg/injection, schedule: Q04DX003 (ip), vehicle: Klucel (hydroxypropylcellulose) (HPC)
[5] = dose: 50.0 mg/kg/injection, schedule: Q04DX003 (ip), vehicle: Klucel (hydroxypropylcellulose) (HPC)
[6] = dose: 50.0 mg/kg/injection, schedule: Q01DX009 (ip), vehicle: saline with Tween-80

CC(=O)c1ccc(P(=O)(O)O)cc1
T/C (dose: 75.0 mg/kg/injection, schedule: Q01DX001 (ip), vehicle: saline): 96 % of control | T/C (dose: 150.0 mg/kg/injection, schedule: Q01DX001 (ip), vehicle: saline): 102 % of control | T/C (dose: 300.0 mg/kg/injection, schedule: Q01DX001 (ip), vehicle: saline): 98 % of control

Cc1cc(C(C)(C)C)ccc1SC(=O)Nc1cc([N+](=O)[O-])ccc1Cl
T/C [1]: 94 % of control and 95 % of control | T/C (dose: 100.0 mg/kg/injection, schedule: Q01DX009 (ip), vehicle: gum acacia): 103 % of control | T/C (dose: 100.0 mg/kg/injection, schedule: Q04DX002 (ip), vehicle: gum acacia): 99 % of control and 105 % of control | T/C (dose: 100.0 mg/kg/injection, schedule: Q04DX003 (ip), vehicle: gum acacia): 97 % of control and 108 % of control | T/C [2]: 95 % of control and 97 % of control | T/C (dose: 200.0 mg/kg/injection, schedule: Q01DX009 (ip), vehicle: gum acacia): 102 % of control | T/C (dose: 200.0 mg/kg/injection, schedule: Q04DX002 (ip), vehicle: gum acacia): 103 % of control and 115 % of control | T/C (dose: 200.0 mg/kg/injection, schedule: Q04DX003 (ip), vehicle: gum acacia): 96 % of control and 99 % of control | T/C [3]: 94 % of control and 95 % of control | T/C (dose: 400.0 mg/kg/injection, schedule: Q04DX002 (ip), vehicle: gum acacia): 101 % of control and 105 % of control | T/C (dose: 400.0 mg/kg/injection, schedule: Q04DX003 (ip), vehicle: gum acacia): 101 % of control and 91 % of control

CC(=O)Nc1ccc[n+](Cc2ccc(S(=O)(=O)F)cc2)c1
T/C [4]: 104 % of control | T/C [5]: 104 % of control

C[N+](C)(C)CCOc1ccc(Cl)cc1
T/C (dose: 12.0 mg/kg/injection, schedule: Q04DX003 (ip), vehicle: Klucel (hydroxypropylcellulose) (HPC)): 91 % of control | T/C (dose: 25.0 mg/kg/injection, schedule: Q01DX009 (ip), vehicle: Klucel (hydroxypropylcellulose) (HPC)): 103 % of control | T/C [4]: 93 % of control | T/C (dose: 50.0 mg/kg/injection, schedule: Q01DX009 (ip), vehicle: Klucel (hydroxypropylcellulose) (HPC)): 106 % of control | T/C [5]: 96 % of control | T/C (dose: 100.0 mg/kg/injection, schedule: Q01DX009 (ip), vehicle: Klucel (hydroxypropylcellulose) (HPC)): 98 % of control

CN(CCCCN(C)CCOS(C)(=O)=O)CCOS(C)(=O)=O
T/C (dose: 1.7 mg/kg/injection, schedule: Q01DX015 (ip), vehicle: saline): 177 % of control | T/C (dose: 8.3 mg/kg/injection, schedule: Q01DX001 (ip), vehicle: saline): 155 % of control | T/C (dose: 12.5 mg/kg/injection, schedule: Q01DX001 (ip), vehicle: saline): 160 % of control | T/C (dose: 18.7 mg/kg/injection, schedule: Q01DX001 (ip), vehicle: saline): 155 % of control | T/C (dose: 25.0 mg/kg/injection, schedule: Q01DX001 (ip), vehicle: saline): 116 % of control

CN=C(NC)c1cccc(NC(=O)/C=C\c2ccc(/C=C/C(=O)Nc3cccc(C(=NC)NC)c3)cc2)c1
T/C (dose: 0.56 mg/kg/injection, schedule: Q01DX Z (ip), vehicle: carboxymethylcellulose (CMC)): 103 % of control | T/C (dose: 1.12 mg/kg/injection, schedule: Q01DX Z (ip), vehicle: carboxymethylcellulose (CMC)): 103 % of control | T/C (dose: 2.25 mg/kg/injection, schedule: Q01DX Z (ip), vehicle: carboxymethylcellulose (CMC)): 120 % of control

N=C(N)SCc1ccc([N+](=O)[O-])cc1
T/C (dose: 100.0 mg/kg/injection, schedule: Q01DX001 (ip), vehicle: saline): 103 % of control | T/C (dose: 200.0 mg/kg/injection, schedule: Q01DX001 (ip), vehicle: saline): 97 % of control

CC1(C)/C(=N\N=C2/C3CCC(C3)C2(C)C)C2CCC1C2
T/C (dose: 12.5 mg/kg/injection, schedule: Q01DX009 (ip), vehicle: saline): 105 % of control | T/C (dose: 25.0 mg/kg/injection, schedule: Q01DX009 (ip), vehicle: saline): 100 % of control | T/C [6]: 106 % of control | T/C (dose: 50.0 mg/kg/injection, schedule: Q01DX009 (ip), vehicle: saline): 109 % of control | T/C (dose: 100.0 mg/kg/injection, schedule: Q04DX003 (ip), vehicle: saline): 109 % of control | T/C (dose: 200.0 mg/kg/injection, schedule: Q04DX003 (ip), vehicle: saline): 108 % of control

Cc1c(C(=O)O)cc([N+](=O)[O-])cc1[N+](=O)[O-]
T/C [6]: 103 % of control | T/C (dose: 100.0 mg/kg/injection, schedule: Q01DX009 (ip), vehicle: saline with Tween-80): 97 % of control | T/C (dose: 200.0 mg/kg/injection, schedule: Q01DX009 (ip), vehicle: saline with Tween-80): 93 % of control

CC1(C)N=C(N)N=C(N)N1c1ccc(OCCOc2ccc(S(=O)(=O)F)cc2)cc1
T/C [1]: 101 % of control | T/C [2]: 98 % of control | T/C [3]: 103 % of control

O=S1(=O)C=C(Br)C1
T/C (dose: 100.0 mg/kg/injection, schedule: Q04DX002 (ip), vehicle: Klucel (hydroxypropylcellulose) (HPC)): 94 % of control and 106 % of control | T/C (dose: 200.0 mg/kg/injection, schedule: Q04DX002 (ip), vehicle: Klucel (hydroxypropylcellulose) (HPC)): 106 % of control
